For the test, the target named is AF2 neuropeptide receptor. Description: In vitro antihelminthic activity using AF2 Neuropeptide receptor binding assay in Caenorhabditis elegans.
The compound `COc1ccc(-c2nn(-c3c(Cl)cc(Cl)cc3Cl)c(=N)s2)cc1` gave an IC50 of 80 µM.

`COc1ccc(OC)c(-c2nn(-c3c(Cl)cc(C(F)(F)F)cc3Cl)c(=N)s2)c1` yielded an IC50 of 4 µM.

For the compound `N=c1sc(-c2cc([N+](=O)[O-])ccc2F)nn1-c1c(Cl)cc(C(F)(F)F)cc1Cl`, the IC50 was determined as 0.63 µM.

In the case of `N#Cc1ccnc(-c2nn(-c3c(Cl)cc(C(F)(F)F)cc3Cl)c(=N)s2)c1`, the half-inhibitory concentration (IC50) turned out to be 0.01 µM.

Compound `N=c1sc(-c2ccccc2SC(F)(F)F)nn1-c1c(Cl)cc(C(F)(F)F)cc1Cl` returned an IC50 of 56 µM.

`N=c1sc(-c2c(F)cccc2C(F)(F)F)nn1-c1c(Cl)cc(C(F)(F)F)cc1Cl` had a concentration for half-maximal inhibition (IC50) greater than 100 µM.

For the compound `N=c1sc(-c2ccc(C(F)(F)F)cc2)nn1-c1c(Cl)cc(Cl)cc1Cl`, the IC50 came to 20 µM.

`COC(=O)c1ccccc1-c1nn(-c2c(Cl)cc(C(F)(F)F)cc2Cl)c(=N)s1`: the IC50 is greater than 100 µM.

Take `N=c1sc(-c2cccc(F)c2)nn1-c1c(Cl)cc(Cl)cc1Cl`: the IC50 was 8 µM.

As to `N=c1sc(-c2ccc(O)cc2)nn1-c1c(Cl)cc(Cl)cc1Cl`, the IC50 was 4 µM.

`N=c1sc(-c2ccc([N+](=O)[O-])cc2)nn1-c1c(Cl)cc(Cl)cc1Cl` showed a 50% inhibitory concentration (IC50) of 5 µM.

Turning to `N=c1sc(-c2cc(Br)ccc2F)nn1-c1c(Cl)cc(C(F)(F)F)cc1Cl`, the 50% inhibitory concentration (IC50) was found to be 0.63 µM.

The compound `COC(=O)c1ccc(-c2nn(-c3c(Cl)cc(Cl)cc3Cl)c(=N)s2)cc1` yielded a half-inhibitory concentration (IC50) of 11 µM.

`Cc1cccnc1-c1nn(-c2c(Cl)cc(C(F)(F)F)cc2Cl)c(=N)s1` showed an IC50 of 11 µM.

Compound `N=c1sc(-c2ccc(C(F)(F)F)cc2F)nn1-c1c(Cl)cc(Cl)cc1Cl` returned a concentration for half-maximal inhibition (IC50) of 1 µM.

Compound `CC(C)(C)c1cc(-c2nn(-c3c(Cl)cc(C(F)(F)F)cc3Cl)c(=N)s2)ccn1` returned an IC50 of 0.037 µM.

`N=c1sc(-c2cccnc2)nn1-c1c(Cl)cc(Cl)cc1Cl` returned an IC50 of 40 µM.

Compound `N=c1sc(-c2ccc(F)cc2)nn1-c1c(Cl)cc(Cl)cc1Cl` gave a 50% inhibitory concentration (IC50) of 0.9 µM.

Take `COC(=O)c1ccnc(-c2nn(-c3c(Cl)cc(C(F)(F)F)cc3Cl)c(=N)s2)c1`: the concentration for half-maximal inhibition (IC50) worked out at 0.13 µM.

In the case of `Cc1ccccc1-c1nn(-c2c(Cl)cc(Cl)cc2Cl)c(=N)s1`, the concentration for half-maximal inhibition (IC50) is 4 µM.

The compound `N=c1sc(-c2cc(F)ccc2F)nn1-c1c(Cl)cc(C(F)(F)F)cc1Cl` had an IC50 of 0.37 µM.

Take `N=c1sc(-c2ccccn2)nn1-c1c(Cl)cc(Cl)cc1Cl`: the IC50 came out at 0.4 µM.

In turn, `CCOC(=O)Oc1ccc(-c2nn(-c3c(Cl)cc(Cl)cc3Cl)c(=N)s2)cc1` gave a half-inhibitory concentration (IC50) of 4 µM.

As for `N=c1sc(-c2cc(C(F)(F)F)ccc2F)nn1-c1c(Cl)cc(C(F)(F)F)cc1Cl`, the IC50 is 0.063 µM.

Turning to `N=c1sc(-c2ccnc([N+](=O)[O-])c2)nn1-c1c(Cl)cc(C(F)(F)F)cc1Cl`, the half-maximal inhibitory concentration (IC50) was 0.013 µM.

As for `N=c1sc(-c2cccc(Br)n2)nn1-c1c(Cl)cc(C(F)(F)F)cc1Cl`, the IC50 is 20 µM.

As for `N=c1sc(-c2ccc(Br)cc2)nn1-c1c(Cl)cc(Cl)cc1Cl`, the 50% inhibitory concentration (IC50) came to 4 µM.

As to `N=c1sc(-c2cc(C(F)(F)F)ccc2F)nn1-c1c(Cl)cc(Cl)cc1Cl`, the IC50 amounted to 0.1 µM.

Take `N=c1sc(-c2ccc(OC(F)(F)F)cc2)nn1-c1c(Cl)cc(Cl)cc1Cl`: the IC50 was found to be 5 µM.

`N=c1sc(-c2cc(CN)ccn2)nn1-c1c(Cl)cc(C(F)(F)F)cc1Cl` yielded a 50% inhibitory concentration (IC50) of 47 µM.

`N=c1sc(-c2ccccn2)nn1-c1c(Cl)cc(C(F)(F)F)cc1Cl` registered an IC50 of 0.09 µM.

As for `N=c1sc(-c2ccccc2F)nn1-c1c(Cl)cc(C(F)(F)F)cc1Cl`, the IC50 was 0.15 µM.

On to `CC(=O)Nc1ccc(-c2nn(-c3c(Cl)cc(Cl)cc3Cl)c(=N)s2)cc1`, for which the 50% inhibitory concentration (IC50) was 70 µM.

On to `N=c1sc(-c2ncc(C(F)(F)F)cc2Cl)nn1-c1c(Cl)cc(C(F)(F)F)cc1Cl`, for which the half-maximal inhibitory concentration (IC50) came to 2.4 µM.

Turning to `N=c1sc(-c2ccncn2)nn1-c1c(Cl)cc(C(F)(F)F)cc1Cl`, the concentration for half-maximal inhibition (IC50) is 2.6 µM.

The compound `N=c1sc(-c2cncc(C(F)(F)F)c2)nn1-c1c(Cl)cc(C(F)(F)F)cc1Cl` had an IC50 of 0.021 µM.

Regarding `N=c1sc(-c2cnccn2)nn1-c1c(Cl)cc(C(F)(F)F)cc1Cl`, the IC50 came to 0.2 µM.

In the case of `N=c1sc(-c2cc(Cl)ccn2)nn1-c1c(Cl)cc(C(F)(F)F)cc1Cl`, the IC50 was 0.16 µM.

`N=c1sc(-c2ccccc2)nn1-c1c(Cl)cc(Cl)cc1Cl` registered an IC50 of 3 µM.

`N=c1sc(-c2cccc(C(F)(F)F)c2F)nn1-c1c(Cl)cc(Cl)cc1Cl`: the concentration for half-maximal inhibition (IC50) was 4 µM.

With `N#Cc1ccc(-c2nn(-c3c(Cl)cc(Cl)cc3Cl)c(=N)s2)cc1`, the IC50 came to 6 µM.

`N=c1sc(-c2ccccc2F)nn1-c1c(Cl)cc(Cl)cc1Cl` yielded a concentration for half-maximal inhibition (IC50) of 0.5 µM.

With `N=c1sc(-c2ccccc2OC(F)(F)F)nn1-c1c(Cl)cc(C(F)(F)F)cc1Cl`, the IC50 came out at 85 µM.

In turn, `N=c1sc(-c2cccnn2)nn1-c1c(Cl)cc(C(F)(F)F)cc1Cl` yielded a concentration for half-maximal inhibition (IC50) of 35 µM.

Compound `Cc1ccc(-c2nn(-c3c(Cl)cc(Cl)cc3Cl)c(=N)s2)cc1` had an IC50 of 7 µM.

`N=c1sc(-c2ccccn2)nn1-c1c(Cl)cc(Cl)cc1C(F)(F)F` registered a half-inhibitory concentration (IC50) of 0.14 µM.

Compound `N=c1sc(-c2ccc(Cl)cc2)nn1-c1c(Cl)cc(Cl)cc1Cl` registered a concentration for half-maximal inhibition (IC50) of 5 µM.

The values above are taken from ChEMBL document CHEMBL1131756, “Synthesis and biological activity of anthelmintic thiadiazoles using an AF-2 receptor binding assay” (Bioorg Med Chem Lett, 1999).
